Earlier results in patent US20150157647A1, “METHODS AND CO[…] TO ACUTE RESPIRATORY DISTRESS SYNDROME” (priority 2013, published 2015).

Legend:
[1] = tested on: endothelial monolayers obtained from rat lung; settings: interferes with function of adherence proteins
[2] = tested on: animal models of preeclampsia
[3] = tested on: rodent brain contusion model; settings: given 1 hour after the insult

SMILES | Effect on vascular permeability [1] | In vitro vascular action | Effect on preeclampsia [2] | Effect on tissue injury [3]
C[C@]12CC[C@H](O)C[C@@]1(O)CC[C@@H]1[C@@H]2CC[C@]2(C)[C@@H](c3ccc(=O)oc3)C[C@H]3O[C@]132 [MBG, marinobufagenin] | causes vascular “leak” | vasoconstrictor |  | 
C[C@]12CC[C@H](O)C[C@H]1CC[C@@H]1[C@@H]2CC[C@]2(C)[C@@H](c3ccc(=O)oc3)C[C@H]3O[C@]132 [RBG, epoxy-3β-hydroxy-5β-bufa-20,22-dienolide] |  |  | prevents preeclampsia | amelioration of tissue injury
